Data on 52 molecules can be found in ChEMBL document CHEMBL1821711, “Design and synthesis of novel arylpiperazine derivatives containing the imidazole core targeting 5-HT(2A) receptor and 5-HT transporter” (J Med Chem, 2011).

Sequence of Cytochrome P450 2C9 (P11712 whole entry): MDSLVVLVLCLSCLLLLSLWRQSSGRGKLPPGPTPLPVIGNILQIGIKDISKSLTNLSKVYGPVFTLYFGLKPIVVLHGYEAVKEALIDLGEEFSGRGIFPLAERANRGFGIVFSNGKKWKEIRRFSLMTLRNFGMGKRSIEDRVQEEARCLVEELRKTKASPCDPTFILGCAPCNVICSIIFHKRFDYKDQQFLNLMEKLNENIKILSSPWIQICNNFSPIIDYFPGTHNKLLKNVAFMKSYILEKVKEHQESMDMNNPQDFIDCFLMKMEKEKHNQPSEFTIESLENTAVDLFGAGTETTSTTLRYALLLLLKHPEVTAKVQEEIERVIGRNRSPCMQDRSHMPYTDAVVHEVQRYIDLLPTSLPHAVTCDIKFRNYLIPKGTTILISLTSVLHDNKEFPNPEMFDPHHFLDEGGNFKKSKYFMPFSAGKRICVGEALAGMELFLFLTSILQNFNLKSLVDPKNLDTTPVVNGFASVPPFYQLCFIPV
Sequence of Cytochrome P450 3A4 (P08684 whole entry): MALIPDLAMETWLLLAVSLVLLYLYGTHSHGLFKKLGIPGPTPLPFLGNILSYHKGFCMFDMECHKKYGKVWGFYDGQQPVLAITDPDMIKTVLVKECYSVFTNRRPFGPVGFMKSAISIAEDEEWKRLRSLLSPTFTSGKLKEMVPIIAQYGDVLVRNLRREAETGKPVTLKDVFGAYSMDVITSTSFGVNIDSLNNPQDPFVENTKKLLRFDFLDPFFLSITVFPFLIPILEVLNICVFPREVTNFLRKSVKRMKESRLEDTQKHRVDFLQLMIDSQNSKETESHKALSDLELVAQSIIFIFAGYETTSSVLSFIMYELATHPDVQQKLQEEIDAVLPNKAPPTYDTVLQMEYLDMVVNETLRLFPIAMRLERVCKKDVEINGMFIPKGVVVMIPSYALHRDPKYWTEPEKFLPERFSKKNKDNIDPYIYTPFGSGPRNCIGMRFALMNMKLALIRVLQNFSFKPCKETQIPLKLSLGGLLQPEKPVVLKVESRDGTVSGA

One data set addresses T1, 5-hydroxytryptamine receptor 2C (Homo sapiens, UniProt P28335).
T1 sequence (P28335 whole entry): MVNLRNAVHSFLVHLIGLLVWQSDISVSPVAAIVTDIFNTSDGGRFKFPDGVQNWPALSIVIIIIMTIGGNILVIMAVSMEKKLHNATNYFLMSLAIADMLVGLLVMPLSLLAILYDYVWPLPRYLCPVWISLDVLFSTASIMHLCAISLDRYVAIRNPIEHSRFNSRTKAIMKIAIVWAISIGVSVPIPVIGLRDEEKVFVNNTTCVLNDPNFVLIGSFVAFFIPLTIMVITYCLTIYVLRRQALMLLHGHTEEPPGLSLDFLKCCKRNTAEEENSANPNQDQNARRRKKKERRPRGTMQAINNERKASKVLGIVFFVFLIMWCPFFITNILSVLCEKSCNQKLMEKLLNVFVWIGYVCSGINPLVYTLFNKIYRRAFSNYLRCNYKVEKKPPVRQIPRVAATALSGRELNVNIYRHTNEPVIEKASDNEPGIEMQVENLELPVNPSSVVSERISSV
Description: biochemical. Format: cell-based, CHO-K1.
Conditions: not given
Molecule `Cc1cccc(N2CCN(CCCNC(=O)c3nc(-c4ccccc4)n(-c4ccc5c(c4)OCCO5)c3C)CC2)c1C` returned a 50% inhibitory concentration (IC50) of 68 nM.

For the molecule `Cc1nc(C(=O)NCC(O)CN2CCN(c3cccc(Cl)c3Cl)CC2)c(C)n1-c1ccccc1F` (configuration not stated), the IC50 was 459 nM.

In turn, `Cc1cccc(N2CCN(CCCNC(=O)c3cn(-c4ccccc4)c(-c4ccccc4)n3)CC2)c1C` showed an IC50 of 116 nM.

As for `Cc1cccc(N2CCN(CCCNC(=O)c3nc(C)n(-c4ccc(Cl)cc4)c3C)CC2)c1C`, the 50% inhibitory concentration (IC50) stood at 233 nM.

Take `CCCc1nc(C(=O)NCC(O)CN2CCN(c3cccc(C)c3C)CC2)c(C)n1-c1ccc(F)cc1` (configuration not stated): the IC50 worked out at 1000 nM.

Molecule `CCCc1nc(C(=O)NCCCN2CCN(c3cccc(C)c3C)CC2)c(C)n1-c1ccccc1Cl` registered an IC50 of 235 nM.

Turning to `COc1ccc(-n2c(-c3ccccc3)nc(C(=O)NCC(O)CN3CCN(c4cccc(C)c4C)CC3)c2C)cc1` (configuration not stated), the IC50 was 609 nM.

Molecule `Cc1cccc(N2CCN(CCCNC(=O)c3nc(-c4ccccc4)n(-c4ccc(F)cc4)c3C)CC2)c1C` gave an IC50 of 64.1 nM.

The molecule `Cc1c(C(=O)NCC(O)CN2CCN(c3cccc(Cl)c3Cl)CC2)nc(-c2ccccc2)n1-c1ccc(F)cc1` (configuration not stated) had a half-maximal inhibitory concentration (IC50) of 64 nM.

`CCCc1nc(C(=O)NCCCN2CCN(c3cccc(C)c3C)CC2)c(C)n1-c1ccccc1` came in with an IC50 of 286 nM.

Turning to `Cc1c(Cl)cccc1N1CCN(CC(O)CNC(=O)c2nc(-c3ccccc3)n(-c3ccccc3)c2C)CC1` (configuration not stated), 739 nM corresponded to half-maximal inhibition (IC50).

With `COc1ccc(-n2c(-c3ccccc3)nc(C(=O)NCCCN3CCN(c4cccc(C)c4C)CC3)c2C)cc1`, the IC50 is 96 nM.

Take `Cc1c(Cl)cccc1N1CCN(CCCNC(=O)c2nc(-c3ccccc3)n(-c3ccccc3)c2C)CC1`: the IC50 is 1510 nM.

For `CCCn1c(C)nc(C(=O)NCC(O)CN2CCN(c3cccc(C)c3C)CC2)c1C` (configuration not stated), the IC50 is > 10000 nM.

Turning to `Cc1nc(C(=O)NCCCN2CCN(c3cccc(Cl)c3Cl)CC2)c(C)n1C1CCCC1`, the IC50 was 139 nM.

In turn, `CCCc1nc(C(=O)NCCCN2CCN(c3cccc(C)c3C)CC2)c(C)n1-c1ccc(F)cc1` returned an IC50 of 68 nM.

`Cc1c(Cl)cccc1N1CCN(CCCNC(=O)c2nc(-c3ccccc3)n(-c3ccccc3)c2Cn2cncn2)CC1` showed an IC50 of 1370 nM.

Molecule `COc1ccc(-n2c(C)nc(C(=O)NCC(O)CN3CCN(c4cccc(C)c4C)CC3)c2C)cc1` (configuration not stated) registered an IC50 of 546 nM.

In turn, `CCCc1nc(C(=O)NCCCN2CCN(c3cccc(Cl)c3Cl)CC2)c(C)n1-c1ccccc1OC` gave an IC50 of 383 nM.

Turning to `Cc1c(Cl)cccc1N1CCN(CCCNC(=O)c2nc(-c3ccccc3)n(-c3ccc(F)cc3)c2C)CC1`, it took 2240 nM to reach half-maximal inhibition (IC50).

`Cc1c(Cl)cccc1N1CCN(CC(O)CNC(=O)c2nc(C)n(-c3cccc(Cl)c3)c2C)CC1` (configuration not stated) had an IC50 of 556 nM.

Consider `CCCc1nc(C(=O)NCC(O)CN2CCN(c3cccc(Cl)c3Cl)CC2)c(C)n1-c1ccc(F)cc1` (configuration not stated), for which 1510 nM corresponded to half-maximal inhibition (IC50).

For `Cc1c(C(=O)NCCCN2CCN(c3cccc(Cl)c3Cl)CC2)nc(-c2ccccc2)n1-c1ccccc1F`, the IC50 came out at 185 nM.

The molecule `CCCc1nc(C(=O)NCCCN2CCN(c3cccc(Cl)c3C)CC2)c(C)n1-c1ccc(OC)cc1` came in with an IC50 of 204 nM.

Molecule `COc1ccc(-n2c(C)nc(C(=O)NCC(O)CN3CCN(c4cccc(Cl)c4C)CC3)c2C)cc1` (configuration not stated) had an IC50 of 323 nM.

`Cc1c(Cl)cccc1N1CCN(CCCNC(=O)c2nc(C)n(-c3ccc4c(c3)OCCO4)c2C)CC1` came in with an IC50 of 106 nM.

In the case of `Cc1c(Cl)cccc1N1CCN(CC(O)CNC(=O)c2nc(C)n(-c3ccc4c(c3)OCCO4)c2C)CC1` (configuration not stated), the IC50 is 663 nM.

For `Cc1c(Cl)cccc1N1CCN(CCCNC(=O)c2nc(C)n(CC(C)C)c2C)CC1`, 2220 nM corresponded to half-maximal inhibition (IC50).

With `CCCc1nc(C(=O)NCCCN2CCN(c3cccc(Cl)c3C)CC2)c(C)n1-c1ccc2c(c1)OCCO2`, the 50% inhibitory concentration (IC50) came to 61 nM.

`CCCc1nc(C(=O)NCC(O)CN2CCN(c3cccc(C)c3C)CC2)c(C)n1-c1ccc2c(c1)OCCO2` (configuration not stated) registered a concentration for half-maximal inhibition (IC50) of 593 nM.

Take `Cc1cccc(N2CCN(CC(O)CNC(=O)c3nc(C)n(-c4ccc5c(c4)OCCO5)c3C)CC2)c1C` (configuration not stated): the IC50 was 610 nM.

For the molecule `Cc1nc(C(=O)NCCCN2CCN(c3cccc(Cl)c3Cl)CC2)c(C)n1-c1ccccc1C(F)(F)F`, the IC50 amounted to 155 nM.

`Cc1c(Cl)cccc1N1CCN(CC(O)CNC(=O)c2nc(C)n(C3CCCC3)c2C)CC1` (configuration not stated) gave a concentration for half-maximal inhibition (IC50) of 166 nM.

In turn, `CCCc1nc(C(=O)NCCCN2CCN(c3cccc(C)c3C)CC2)cn1-c1ccc(F)cc1` gave a half-maximal inhibitory concentration (IC50) of 238 nM.

In turn, `CCCc1nc(C(=O)NCCCN2CCN(c3cccc(Cl)c3C)CC2)cn1-c1ccc(Cl)cc1` displayed a 50% inhibitory concentration (IC50) of 367 nM.

As to `CCCc1nc(C(=O)NCC(O)CN2CCN(c3cccc(C)c3C)CC2)c(C)n1-c1ccc(Cl)cc1` (configuration not stated), 661 nM corresponded to half-maximal inhibition (IC50).

As to `Cc1cccc(N2CCN(CCCNC(=O)c3nc(-c4ccccc4)n(-c4ccccc4)c3C)CC2)c1C`, half-maximal inhibition (IC50) was put at 193 nM.

Take `CCCc1nc(C(=O)NCCCN2CCN(c3cccc(Cl)c3Cl)CC2)c(C)n1-c1ccccc1F`: 189 nM corresponded to half-maximal inhibition (IC50).

Consider `CCCn1c(C)nc(C(=O)NCCCN2CCN(c3cccc(Cl)c3Cl)CC2)c1C`, for which half-maximal inhibition (IC50) was put at 198 nM.

`CCCc1nc(C(=O)NCCCN2CCN(c3cccc(Cl)c3Cl)CC2)c(C)n1-c1ccc2c(c1)OCCO2`: the IC50 amounted to 297 nM.

With `COc1ccc(-n2c(C)nc(C(=O)NCCCN3CCN(c4cccc(C)c4C)CC3)c2C)cc1`, it took 191 nM to reach half-maximal inhibition (IC50).

`COc1ccc(-n2c(-c3ccccc3)nc(C(=O)NCC(O)CN3CCN(c4cccc(Cl)c4C)CC3)c2C)cc1` (configuration not stated) had an IC50 of 526 nM.

Turning to `COc1ccc(-n2c(-c3ccccc3)nc(C(=O)NCCCN3CCN(c4cccc(Cl)c4Cl)CC3)c2C)cc1`, the IC50 amounted to 64 nM.

The molecule `CCCc1nc(C(=O)NCCCN2CCN(c3cccc(Cl)c3C)CC2)c(C)n1-c1ccccc1` gave a half-maximal inhibitory concentration (IC50) of 604 nM.

As for `Cc1c(Cl)cccc1N1CCN(CCCNC(=O)c2nc(C)n(C3CCCC3)c2C)CC1`, the half-maximal inhibitory concentration (IC50) worked out at 4370 nM.

Take `Cc1cccc(N2CCN(CC(O)CNC(=O)c3nc(-c4ccccc4)n(-c4ccc(F)cc4)c3C)CC2)c1C` (configuration not stated): it took 185 nM to reach half-maximal inhibition (IC50).

Regarding `Cc1c(Cl)cccc1N1CCN(CCCNC(=O)c2nc(C)n(-c3ccc(F)cc3)c2C)CC1`, the IC50 worked out at 113 nM.

In turn, `CCCc1nc(C(=O)NCCCN2CCN(c3cccc(C)c3C)CC2)c(C)n1-c1ccccc1OC` gave an IC50 of 283 nM.

As for `COc1ccc(-n2c(-c3ccccc3)nc(C(=O)NCCCN3CCN(c4cccc(Cl)c4C)CC3)c2C)cc1`, the IC50 was determined as 77 nM.

`CCCc1nc(C(=O)NCCCN2CCN(c3cccc(Cl)c3C)CC2)c(C)n1-c1ccccc1OC` displayed an IC50 of 473 nM.

Molecule `COc1ccc(-n2cc(C(=O)NCCCN3CCN(c4cccc(C)c4C)CC3)nc2-c2ccccc2)cc1` came in with a 50% inhibitory concentration (IC50) of 104 nM.

For the molecule `CCCc1nc(C(=O)NCCCN2CCN(c3cccc(Cl)c3C)CC2)c(C)n1-c1ccc(F)cc1`, the IC50 was determined as 229 nM.

The target in a further data set is T2, Cytochrome P450 1A2 (Homo sapiens, UniProt P05177).
T2 sequence (P05177 whole entry): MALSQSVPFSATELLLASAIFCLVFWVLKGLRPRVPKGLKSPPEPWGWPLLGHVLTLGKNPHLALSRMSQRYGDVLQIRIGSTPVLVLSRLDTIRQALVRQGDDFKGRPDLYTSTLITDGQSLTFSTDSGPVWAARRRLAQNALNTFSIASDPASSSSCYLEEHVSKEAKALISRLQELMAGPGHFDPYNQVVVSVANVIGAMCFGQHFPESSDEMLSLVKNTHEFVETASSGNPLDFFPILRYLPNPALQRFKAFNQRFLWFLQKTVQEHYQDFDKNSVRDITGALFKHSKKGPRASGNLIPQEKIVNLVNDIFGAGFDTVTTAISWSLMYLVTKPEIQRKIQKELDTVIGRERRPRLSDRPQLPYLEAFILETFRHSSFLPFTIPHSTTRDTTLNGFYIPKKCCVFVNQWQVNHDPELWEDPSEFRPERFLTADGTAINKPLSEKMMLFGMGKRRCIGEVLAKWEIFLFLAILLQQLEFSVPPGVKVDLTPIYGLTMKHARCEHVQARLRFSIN
Assay: not given
Conditions: not given
As for `Cc1c(Cl)cccc1N1CCN(CCCNC(=O)c2nc(-c3ccccc3)n(-c3ccccc3)c2C)CC1`, the IC50 is > 20000 nM.

As to `Cc1c(Cl)cccc1N1CCN(CCCNC(=O)c2nc(-c3ccccc3)n(-c3ccccc3)c2Cn2cncn2)CC1`, 15300 nM corresponded to half-maximal inhibition (IC50).

The next data set addresses Cytochrome P450 2C9 (Homo sapiens, UniProt P11712).
Assay: not given
Conditions: not given
Take `Cc1c(Cl)cccc1N1CCN(CCCNC(=O)c2nc(-c3ccccc3)n(-c3ccccc3)c2C)CC1`: the IC50 was determined as 2900 nM.

Molecule `Cc1c(Cl)cccc1N1CCN(CCCNC(=O)c2nc(-c3ccccc3)n(-c3ccccc3)c2Cn2cncn2)CC1` came in with a concentration for half-maximal inhibition (IC50) of 3300 nM.

For the next data set, the target named is Cytochrome P450 2D6 (Homo sapiens, UniProt P10635).
Sequence of Cytochrome P450 2D6 (P10635 whole entry): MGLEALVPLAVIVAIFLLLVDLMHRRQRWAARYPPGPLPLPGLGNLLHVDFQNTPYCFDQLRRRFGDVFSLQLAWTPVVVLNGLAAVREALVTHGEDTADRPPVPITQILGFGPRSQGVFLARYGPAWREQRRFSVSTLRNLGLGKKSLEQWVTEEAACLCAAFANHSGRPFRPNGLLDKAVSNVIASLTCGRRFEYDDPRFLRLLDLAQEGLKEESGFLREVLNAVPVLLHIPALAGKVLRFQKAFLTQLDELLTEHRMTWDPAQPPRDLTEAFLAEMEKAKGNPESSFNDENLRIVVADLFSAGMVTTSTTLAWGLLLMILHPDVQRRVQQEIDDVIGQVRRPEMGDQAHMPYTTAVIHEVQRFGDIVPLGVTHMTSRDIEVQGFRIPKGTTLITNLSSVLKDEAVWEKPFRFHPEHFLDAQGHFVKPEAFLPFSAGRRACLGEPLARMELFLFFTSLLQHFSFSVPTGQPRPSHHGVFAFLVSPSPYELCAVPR
Assay: not given
Conditions: not given
`Cc1c(Cl)cccc1N1CCN(CCCNC(=O)c2nc(-c3ccccc3)n(-c3ccccc3)c2C)CC1` displayed an IC50 of 5400 nM.

For `Cc1c(Cl)cccc1N1CCN(CCCNC(=O)c2nc(-c3ccccc3)n(-c3ccccc3)c2Cn2cncn2)CC1`, the IC50 was determined as 4800 nM.

A further data set addresses Cytochrome P450 3A4 (Homo sapiens, UniProt P08684).
Assay: not given
Conditions: not given
As to `Cc1c(Cl)cccc1N1CCN(CCCNC(=O)c2nc(-c3ccccc3)n(-c3ccccc3)c2C)CC1`, the IC50 is > 20000 nM.

As to `Cc1c(Cl)cccc1N1CCN(CCCNC(=O)c2nc(-c3ccccc3)n(-c3ccccc3)c2Cn2cncn2)CC1`, the IC50 was > 20000 nM.

Test system in another data set: not listed separately
Description: in vitro. The conditions noted are these: mouse, ht-22.
Description: Cytotoxicity against mouse HT22 cells after 48 hrs by MTT assay
On to `Cc1c(Cl)cccc1N1CCN(CCCNC(=O)c2nc(-c3ccccc3)n(-c3ccccc3)c2C)CC1`, for which the CC50 at 48 h was found to be 23600 nM.

As to `Cc1c(Cl)cccc1N1CCN(CCCNC(=O)c2nc(-c3ccccc3)n(-c3ccccc3)c2Cn2cncn2)CC1`, the CC50 at 48 h came out at 19100 nM.
